Reference: paper PMC6339703, “Visualizing the Distribution of Matrix Metalloproteinases in Ischemic Brain Using In Vivo ^19F-Magnetic Resonance Spectroscopic Imaging” (Contrast Media & Molecular Imaging, 2019)

Experiments:
MMP9 = MMP9 (Homo sapiens, UniProt P14780); assay: in vitro MMP inhibition assay (Eurofins Panlabs); type: biochemical
MMP2 = target: T1, MMP2 (Homo sapiens, UniProt P08253); assay: in vitro MMP inhibition assay (Eurofins Panlabs); type: biochemical
T1 sequence (P08253 110-660): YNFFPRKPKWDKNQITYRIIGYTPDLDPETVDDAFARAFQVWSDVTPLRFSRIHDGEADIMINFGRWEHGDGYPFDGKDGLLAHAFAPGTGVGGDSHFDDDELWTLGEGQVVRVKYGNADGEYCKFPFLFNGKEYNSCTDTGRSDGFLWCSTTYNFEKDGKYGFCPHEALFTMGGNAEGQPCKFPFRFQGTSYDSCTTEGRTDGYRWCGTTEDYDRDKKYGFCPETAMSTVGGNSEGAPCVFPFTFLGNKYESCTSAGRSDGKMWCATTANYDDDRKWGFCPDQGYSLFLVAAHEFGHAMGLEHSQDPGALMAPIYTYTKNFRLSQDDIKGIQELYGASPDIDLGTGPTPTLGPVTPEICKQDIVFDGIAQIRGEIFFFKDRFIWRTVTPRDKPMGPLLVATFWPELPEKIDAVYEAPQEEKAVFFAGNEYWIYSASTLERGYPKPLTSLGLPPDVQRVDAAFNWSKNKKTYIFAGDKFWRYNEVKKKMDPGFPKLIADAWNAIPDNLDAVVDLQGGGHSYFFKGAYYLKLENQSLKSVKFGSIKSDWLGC

Chain of MMP9 (P14780 107-707): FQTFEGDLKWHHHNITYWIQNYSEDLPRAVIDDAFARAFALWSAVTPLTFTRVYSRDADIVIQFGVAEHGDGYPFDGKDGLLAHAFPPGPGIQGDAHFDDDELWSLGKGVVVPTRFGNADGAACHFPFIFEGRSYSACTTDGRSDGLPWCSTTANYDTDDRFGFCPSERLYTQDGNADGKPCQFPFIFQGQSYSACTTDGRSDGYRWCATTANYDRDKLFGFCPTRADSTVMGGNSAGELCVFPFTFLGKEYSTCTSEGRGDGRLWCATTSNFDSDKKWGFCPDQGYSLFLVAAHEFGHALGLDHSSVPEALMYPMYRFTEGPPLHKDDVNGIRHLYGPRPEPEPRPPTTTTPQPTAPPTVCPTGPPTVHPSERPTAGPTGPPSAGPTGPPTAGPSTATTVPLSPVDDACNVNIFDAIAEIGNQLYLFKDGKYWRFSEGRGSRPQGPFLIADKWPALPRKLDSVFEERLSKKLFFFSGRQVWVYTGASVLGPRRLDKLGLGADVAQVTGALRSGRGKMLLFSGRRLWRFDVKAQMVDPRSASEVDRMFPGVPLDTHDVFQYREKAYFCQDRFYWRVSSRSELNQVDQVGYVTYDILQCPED

Structure (SMILES): CNC(=O)C(Cc1c[nH]c2ccc(F)cc12)NC(=O)C(CC(=O)NO)CC(C)C (mixture of isomers) [TGF-019]
- in vitro MMP inhibition assay (Eurofins Panlabs) (MMP9): completely inhibit
- in vitro MMP inhibition assay (Eurofins Panlabs) (MMP2): completely inhibit
